Results published in publication PMC12736120, “First-in-Human Phase I Clinical Trial of SLC-391, a Novel and Selective AXL Inhibitor, in Patients with Advanced Solid Tumours” (Pharmaceuticals, 2025).

Test: Phase I safety and tolerability (DLTs, adverse events, laboratory, ECG)
Format: in vivo
Procedure: This study employed a standard 3 + 3 dose escalation design with a starting dose of 25 mg QD. […] Dose escalation decisions took into account all available data from evaluable subjects as well as PK and the safety profile of prior dose cohorts. […] There was a minimum 5-day stagger between dosing of the first and second subjects in each dose cohort. Dose escalation decisions were made by a data review committee (DRC) composed of, at minimum, the medical monitor, at least one principal investigator, and a sponsor representative, per the study DRC Plan. Dose escalation could continue until 2 or more subjects in the same dose cohort experienced a dose-limiting toxicity (DLT). DLTs were defined as Grade 3 or 4 adverse drug reactions (ADRs), with grades as defined in the National Cancer Institute Common Toxicity Criteria for Adverse Events (NCI-CTCAE) version 5.0. […] The MTD was defined as the highest dose at which no more than 1 of 6 subjects experienced a DLT during cycle 1 of the study drug. The MTD would have been exceeded if 2 or more subjects in a dose cohort of up to 6 subjects experienced a DLT. Subjects could continue treatment until disease progression, unacceptable toxicity, death, withdrawal of consent, or loss to follow-up.
Before enrolment in the study, all patients received a detailed medical history and physical examination. Clinical laboratory evaluations included clinical chemistry, complete blood count, urinalysis, coagulation factors, and a lipid panel. Other safety assessments included vital signs, physical examination, electrocardiogram, and echocardiogram with multigated acquisition (ECHO/MUGA). Safety assessments were performed on days 1, 8, 15, and 21 of cycle 1, and on day 1 of cycles 2 to 6.

[1] = Grade 3, Overall Study (N = 35)
[2] = Grade All, Overall BID (N = 15)
[3] = Grade All, Overall Study (N = 35)

Nc1ncc(-c2cnn(C3CCNCC3)c2)cc1-c1nnc(CC2CC2)o1 [SLC-391, 3-(5-[cyclopropylmethyl]-1,3,4-oxadiazol-2-yl)-5-(1-[piperidin-4-yl]-1H-pyrazol-4-yl)-pyridin-2-amine]
TEAE: Metabolism and nutrition disorders (Grade 3, Overall BID (N = 15)): 0 n (%) | TEAE: Musculoskeletal and connective tissue disorders (Grade 3, Overall BID (N = 15)): 1 (6.7) n (%) | TEAE: Nausea (Grade 3, Overall BID (N = 15)): 0 n (%) | TEAE: Renal and urinary disorders (Grade 3, Overall BID (N = 15)): 1 (6.7) n (%) | TEAE: Respiratory, thoracic, and mediastinal disorders (Grade 3, Overall BID (N = 15)): 0 n (%) | TEAE: Skin and subcutaneous tissue disorders (Grade 3, Overall BID (N = 15)): 1 (6.7) n (%) | TEAE: Vascular disorders (Grade 3, Overall BID (N = 15)): 1 (6.7) n (%) | TEAE: Vomiting (Grade 3, Overall BID (N = 15)): 0 n (%) | Any treatment-emergent adverse event (TEAE) (Grade 3, Overall QD (N = 20)): 6 (30.0) n (%) | TEAE: Blood and lymphatic system disorders (Grade 3, Overall QD (N = 20)): 1 (5.0) n (%) | TEAE: Diarrhoea (Grade 3, Overall QD (N = 20)): 0 n (%) | TEAE: Dyspnoea (Grade 3, Overall QD (N = 20)): 1 (5.0) n (%) | TEAE: Fatigue (Grade 3, Overall QD (N = 20)): 0 n (%) | TEAE: Gastrointestinal disorders (Grade 3, Overall QD (N = 20)): 3 (15.0) n (%) | TEAE: General disorders and administration site conditions (Grade 3, Overall QD (N = 20)): 0 n (%) | TEAE: Infections and infestations (Grade 3, Overall QD (N = 20)): 1 (5.0) n (%) | TEAE: Metabolism and nutrition disorders (Grade 3, Overall QD (N = 20)): 2 (10.0) n (%) | TEAE: Musculoskeletal and connective tissue disorders (Grade 3, Overall QD (N = 20)): 1 (5.0) n (%) | TEAE: Nausea (Grade 3, Overall QD (N = 20)): 1 (5.0) n (%) | TEAE: Renal and urinary disorders (Grade 3, Overall QD (N = 20)): 0 n (%) | TEAE: Respiratory, thoracic, and mediastinal disorders (Grade 3, Overall QD (N = 20)): 2 (10.0) n (%) | TEAE: Skin and subcutaneous tissue disorders (Grade 3, Overall QD (N = 20)): 0 n (%) | TEAE: Vascular disorders (Grade 3, Overall QD (N = 20)): 1 (5.0) n (%) | TEAE: Vomiting (Grade 3, Overall QD (N = 20)): 1 (5.0) n (%) | Any treatment-emergent adverse event (TEAE) [1]: 12 (34.3) n (%) | TEAE: Blood and lymphatic system disorders [1]: 2 (5.7) n (%) | TEAE: Diarrhoea [1]: 1 (2.9) n (%) | TEAE: Dyspnoea [1]: 1 (2.9) n (%) | TEAE: Fatigue [1]: 1 (2.9) n (%) | TEAE: Gastrointestinal disorders [1]: 4 (11.4) n (%) | TEAE: General disorders and administration site conditions [1]: 1 (2.9) n (%) | TEAE: Infections and infestations [1]: 2 (5.7) n (%) | TEAE: Metabolism and nutrition disorders [1]: 2 (5.7) n (%) | TEAE: Musculoskeletal and connective tissue disorders [1]: 2 (5.7) n (%) | TEAE: Nausea [1]: 1 (2.9) n (%) | TEAE: Renal and urinary disorders [1]: 1 (2.9) n (%) | TEAE: Respiratory, thoracic, and mediastinal disorders [1]: 2 (5.7) n (%) | TEAE: Skin and subcutaneous tissue disorders [1]: 1 (2.9) n (%) | TEAE: Vascular disorders [1]: 2 (5.7) n (%) | TEAE: Vomiting [1]: 1 (2.9) n (%) | Any treatment-emergent adverse event (TEAE) [2]: 15 (100.0) n (%) | TEAE: Abdominal distension [2]: 3 (20.0) n (%) | TEAE: Abdominal pain [2]: 0 n (%) | TEAE: Back pain [2]: 2 (13.3) n (%) | TEAE: Blood and lymphatic system disorders [2]: 2 (13.3) n (%) | TEAE: Chills [2]: 4 (26.7) n (%) | TEAE: Constipation [2]: 7 (46.7) n (%) | TEAE: Cough [2]: 3 (20.0) n (%) | TEAE: Decreased appetite [2]: 5 (33.3) n (%) | TEAE: Diarrhoea [2]: 9 (60.0) n (%) | TEAE: Dizziness [2]: 0 n (%) | TEAE: Dysgeusia [2]: 2 (13.3) n (%) | TEAE: Dyspnoea [2]: 5 (33.3) n (%) | TEAE: Fatigue [2]: 10 (66.7) n (%) | TEAE: Gastrointestinal disorders [2]: 13 (86.7) n (%) | TEAE: General disorders and administration site conditions [2]: 12 (80.0) n (%) | TEAE: Haematuria [2]: 4 (26.7) n (%) | TEAE: Headache [2]: 3 (20.0) n (%) | TEAE: Infections and infestations [2]: 7 (46.7) n (%) | TEAE: Investigations [2]: 3 (20.0) n (%) | TEAE: Metabolism and nutrition disorders [2]: 5 (33.3) n (%) | TEAE: Musculoskeletal and connective tissue disorders [2]: 6 (40.0) n (%) | TEAE: Nausea [2]: 11 (73.3) n (%) | TEAE: Nervous system disorders [2]: 5 (33.3) n (%) | TEAE: Oedema peripheral [2]: 2 (13.3) n (%) | TEAE: Psychiatric disorders [2]: 3 (20.0) n (%) | TEAE: Pyrexia [2]: 2 (13.3) n (%) | TEAE: Renal and urinary disorders [2]: 5 (33.3) n (%) | TEAE: Respiratory, thoracic, and mediastinal disorders [2]: 8 (53.3) n (%) | TEAE: Skin and subcutaneous tissue disorders [2]: 3 (20.0) n (%) | TEAE: Urinary tract infection [2]: 3 (20.0) n (%) | TEAE: Vascular disorders [2]: 2 (13.3) n (%) | TEAE: Vomiting [2]: 6 (40.0) n (%) | TEAE: Weight decreased [2]: 2 (13.3) n (%) | Any treatment-emergent adverse event (TEAE) (Grade All, Overall QD (N = 20)): 19 (95.0) n (%) | TEAE: Abdominal distension (Grade All, Overall QD (N = 20)): 3 (15.0) n (%) | TEAE: Abdominal pain (Grade All, Overall QD (N = 20)): 5 (25.0) n (%) | TEAE: Back pain (Grade All, Overall QD (N = 20)): 2 (10.0) n (%) | TEAE: Blood and lymphatic system disorders (Grade All, Overall QD (N = 20)): 2 (10.0) n (%) | TEAE: Chills (Grade All, Overall QD (N = 20)): 2 (10.0) n (%) | TEAE: Constipation (Grade All, Overall QD (N = 20)): 7 (35.0) n (%) | TEAE: Cough (Grade All, Overall QD (N = 20)): 4 (20.0) n (%) | TEAE: Decreased appetite (Grade All, Overall QD (N = 20)): 7 (35.0) n (%) | TEAE: Diarrhoea (Grade All, Overall QD (N = 20)): 11 (55.0) n (%) | TEAE: Dizziness (Grade All, Overall QD (N = 20)): 4 (20.0) n (%) | TEAE: Dysgeusia (Grade All, Overall QD (N = 20)): 2 (10.0) n (%) | TEAE: Dyspnoea (Grade All, Overall QD (N = 20)): 7 (35.0) n (%) | TEAE: Fatigue (Grade All, Overall QD (N = 20)): 12 (60.0) n (%) | TEAE: Gastrointestinal disorders (Grade All, Overall QD (N = 20)): 17 (85.0) n (%) | TEAE: General disorders and administration site conditions (Grade All, Overall QD (N = 20)): 15 (75.0) n (%) | TEAE: Haematuria (Grade All, Overall QD (N = 20)): 1 (5.0) n (%) | TEAE: Headache (Grade All, Overall QD (N = 20)): 2 (10.0) n (%) | TEAE: Infections and infestations (Grade All, Overall QD (N = 20)): 4 (20.0) n (%) | TEAE: Investigations (Grade All, Overall QD (N = 20)): 5 (25.0) n (%) | TEAE: Metabolism and nutrition disorders (Grade All, Overall QD (N = 20)): 9 (45.0) n (%) | TEAE: Musculoskeletal and connective tissue disorders (Grade All, Overall QD (N = 20)): 8 (40.0) n (%) | TEAE: Nausea (Grade All, Overall QD (N = 20)): 13 (65.0) n (%) | TEAE: Nervous system disorders (Grade All, Overall QD (N = 20)): 10 (50.0) n (%) | TEAE: Oedema peripheral (Grade All, Overall QD (N = 20)): 2 (10.0) n (%) | TEAE: Psychiatric disorders (Grade All, Overall QD (N = 20)): 2 (10.0) n (%) | TEAE: Pyrexia (Grade All, Overall QD (N = 20)): 3 (15.0) n (%) | TEAE: Renal and urinary disorders (Grade All, Overall QD (N = 20)): 1 (5.0) n (%) | TEAE: Respiratory, thoracic, and mediastinal disorders (Grade All, Overall QD (N = 20)): 11 (55.0) n (%) | TEAE: Skin and subcutaneous tissue disorders (Grade All, Overall QD (N = 20)): 7 (35.0) n (%) | TEAE: Urinary tract infection (Grade All, Overall QD (N = 20)): 1 (5.0) n (%) | TEAE: Vascular disorders (Grade All, Overall QD (N = 20)): 3 (15.0) n (%) | TEAE: Vomiting (Grade All, Overall QD (N = 20)): 11 (55.0) n (%) | TEAE: Weight decreased (Grade All, Overall QD (N = 20)): 4 (20.0) n (%) | Any treatment-emergent adverse event (TEAE) [3]: 34 (97.1) n (%) | TEAE: Abdominal distension [3]: 6 (17.1) n (%) | TEAE: Abdominal pain [3]: 5 (14.3) n (%) | TEAE: Back pain [3]: 4 (11.4) n (%) | TEAE: Blood and lymphatic system disorders [3]: 4 (11.4) n (%) | TEAE: Chills [3]: 6 (17.1) n (%) | TEAE: Constipation [3]: 14 (40.0) n (%) | TEAE: Cough [3]: 7 (20.0) n (%) | TEAE: Decreased appetite [3]: 12 (34.3) n (%) | TEAE: Diarrhoea [3]: 20 (57.1) n (%) | TEAE: Dizziness [3]: 4 (11.4) n (%) | TEAE: Dysgeusia [3]: 4 (11.4) n (%) | TEAE: Dyspnoea [3]: 12 (34.3) n (%) | TEAE: Fatigue [3]: 22 (62.9) n (%) | TEAE: Gastrointestinal disorders [3]: 30 (85.7) n (%) | TEAE: General disorders and administration site conditions [3]: 27 (77.1) n (%) | TEAE: Haematuria [3]: 5 (14.3) n (%) | TEAE: Headache [3]: 5 (14.3) n (%) | TEAE: Infections and infestations [3]: 11 (31.4) n (%) | TEAE: Investigations [3]: 8 (22.9) n (%) | TEAE: Metabolism and nutrition disorders [3]: 14 (40.0) n (%)
